Read-outs that look alike come from different tables or passages of the source.
Tested on: 280 human cancer cell lines
Assay: OncoPanel cell proliferation assay (10-day)
Format: cell-based
Settings: Homo sapiens; for GI50: read-out: Cell Count GI50; for IC50: read-out: Cell Count IC50; for EC50: read-out: Cell Count EC50
[1] = C-4-II, C-4 II, Female GU - Cervix
[2] = C-33-A, C-33A, Female GU - Cervix
[3] = CAL-62, CAL-62, Endocrine - Thyroid
[4] = CCF-STTG1, CCF-STTG1, CNS - Glioma
[5] = CGTH-W-1, CGTH-W-1, Endocrine - Thyroid
[6] = CHP-212, CHP-212, CNS - Neuroblastoma
[7] = COLO-320-HSR, Colo 320 HSR, Colon
[8] = COLO-829, COLO 829, Skin (Melanoma)
[9] = COR-L105, COR-L105, Lung - NSCLC
[10] = Ca-Ski, Ca Ski, Female GU - Ovary

CC(C)=CCC[C@H](C)[C@@H]1CC[C@@H](C)c2c1cc(C)c(O)c2O [Compound 4, 7,8-dihydroxyserrulat-14-ene]
GI50 (BT-474, BT474, Breast): 25 µM
IC50 (BT-474, BT474, Breast): 25.7 µM
EC50 (BT-549, BT-549, Breast): 15.3 µM
GI50 (BT-549, BT-549, Breast): 15.1 µM
IC50 (BT-549, BT-549, Breast): 15.3 µM
EC50 (BV-173, BV-173, Leukemia): 3.56 µM
GI50 (BV-173, BV-173, Leukemia): 3.55 µM
IC50 (BV-173, BV-173, Leukemia): 3.56 µM
EC50 (BXPC-3, BxPC-3, Pancreas): 13.4 µM
GI50 (BXPC-3, BxPC-3, Pancreas): 13.4 µM
IC50 (BXPC-3, BxPC-3, Pancreas): 13.4 µM
EC50 (BeWo, Placenta): 15.6 µM
GI50 (BeWo, Placenta): 15.5 µM
IC50 (BeWo, Placenta): 15.6 µM
EC50 (C32, Skin (Melanoma)): 7.84 µM
GI50 (C32, Skin (Melanoma)): 6.37 µM
IC50 (C32, Skin (Melanoma)): 7.84 µM
EC50 [1]: 12.6 µM
GI50 [1]: 12.5 µM
IC50 [1]: 12.6 µM
EC50 [2]: 9.57 µM
GI50 [2]: 9.42 µM
IC50 [2]: 9.57 µM
EC50 (CA46, CA46, Lymphoma): 4.06 µM
GI50 (CA46, CA46, Lymphoma): 4.06 µM
IC50 (CA46, CA46, Lymphoma): 4.06 µM
EC50 (CAKI-1, Caki-1, Kidney): 14.4 µM
GI50 (CAKI-1, Caki-1, Kidney): 14.1 µM
IC50 (CAKI-1, Caki-1, Kidney): 14.4 µM
EC50 (CAKI-2, Caki-2, Kidney): 13.1 µM
GI50 (CAKI-2, Caki-2, Kidney): 13.5 µM
IC50 (CAKI-2, Caki-2, Kidney): 13.6 µM
EC50 (CAL-27, Cal 27, Head and Neck): 12.3 µM
GI50 (CAL-27, Cal 27, Head and Neck): 12.2 µM
IC50 (CAL-27, Cal 27, Head and Neck): 12.3 µM
EC50 [3]: 5.36 µM
GI50 [3]: 5.36 µM
IC50 [3]: 5.36 µM
EC50 (CAMA-1, CAMA-1, Breast): > 30 µM
GI50 (CAMA-1, CAMA-1, Breast): > 30 µM
IC50 (CAMA-1, CAMA-1, Breast): > 30 µM
EC50 (CAPAN-1, Capan-1, Pancreas): > 30 µM
GI50 (CAPAN-1, Capan-1, Pancreas): > 30 µM
IC50 (CAPAN-1, Capan-1, Pancreas): > 30 µM
EC50 [4]: 19.7 µM
GI50 [4]: 16 µM
IC50 [4]: 19.7 µM
EC50 (CCRF-CEM, CCRFCEM, Leukemia): 4.92 µM
GI50 (CCRF-CEM, CCRFCEM, Leukemia): 4.91 µM
IC50 (CCRF-CEM, CCRFCEM, Leukemia): 4.93 µM
EC50 (CEM/C1, CEM-C1, Leukemia): 1.47 µM
GI50 (CEM/C1, CEM-C1, Leukemia): 1.47 µM
IC50 (CEM/C1, CEM-C1, Leukemia): 1.47 µM
EC50 (CFPAC-1, CFPAC-1, Pancreas): 25.2 µM
GI50 (CFPAC-1, CFPAC-1, Pancreas): 25.1 µM
IC50 (CFPAC-1, CFPAC-1, Pancreas): 25.2 µM
EC50 [5]: 3.45 µM
GI50 [5]: 3.47 µM
IC50 [5]: 3.48 µM
EC50 (CHL-1, CHL-1, Skin (Melanoma)): 11.9 µM
GI50 (CHL-1, CHL-1, Skin (Melanoma)): 11.8 µM
IC50 (CHL-1, CHL-1, Skin (Melanoma)): 11.9 µM
EC50 [6]: 9.77 µM
GI50 [6]: 9.74 µM
IC50 [6]: 9.78 µM
EC50 (CML-T1, CML-T1, Leukemia): 3.93 µM
GI50 (CML-T1, CML-T1, Leukemia): 3.93 µM
IC50 (CML-T1, CML-T1, Leukemia): 3.93 µM
EC50 (COLO 201, Colo 201, Colon): 4.07 µM
GI50 (COLO 201, Colo 201, Colon): 4.04 µM
IC50 (COLO 201, Colo 201, Colon): 4.07 µM
EC50 (COLO 205, Colo 205, Colon): 11.9 µM
GI50 (COLO 205, Colo 205, Colon): 11.9 µM
IC50 (COLO 205, Colo 205, Colon): 11.9 µM
EC50 (COLO 320DM, Colon): 7.91 µM
GI50 (COLO 320DM, Colon): 7.87 µM
IC50 (COLO 320DM, Colon): 7.91 µM
EC50 [7]: 5.15 µM
GI50 [7]: 5.15 µM
IC50 [7]: 5.16 µM
EC50 [8]: 3.71 µM
GI50 [8]: 3.29 µM
IC50 [8]: 3.71 µM
EC50 (COR-L23, COR-L23, Lung - NSCLC): 13.3 µM
GI50 (COR-L23, COR-L23, Lung - NSCLC): 13.2 µM
IC50 (COR-L23, COR-L23, Lung - NSCLC): 13.3 µM
EC50 [9]: 8.66 µM
GI50 [9]: 8.47 µM
IC50 [9]: 8.66 µM
EC50 (CRO-AP2, CRO-AP2, Lymphoma): 9.94 µM
GI50 (CRO-AP2, CRO-AP2, Lymphoma): 9.88 µM
IC50 (CRO-AP2, CRO-AP2, Lymphoma): 9.94 µM
EC50 [10]: 17.6 µM
GI50 [10]: 17.6 µM
IC50 [10]: 17.6 µM
EC50 (Calu-1, Calu1, Lung - NSCLC): 8.88 µM
GI50 (Calu-1, Calu1, Lung - NSCLC): 8.77 µM
IC50 (Calu-1, Calu1, Lung - NSCLC): 8.88 µM
EC50 (Calu-6, Calu6, Lung - NSCLC): 25 µM
GI50 (Calu-6, Calu6, Lung - NSCLC): 24.5 µM
IC50 (Calu-6, Calu6, Lung - NSCLC): 25 µM
